The nature of data set [1]: Dynamic Vapor Sorption (DVS) moisture sorption/desorption isotherm at 25° C. It is filed as physicochemical. As to the method:
Moisture sorption/desorption isotherms were recorded on a SPS11-10μ from Projekt Messtechnik (Ulm, Germany). One cycle was run at 25° C., in which the sample was first stepwise decreased to 0% RH and then the relative humidity was stepwise increased from 0 to 95% and the weight of the sample was measured. Typical total measurement times for both cycles were about 20 to 30 hours.
The measurement was performed as disclosed in Example 7 with (R)-3-[6-amino-pyridin-3-yl]-2-(1-cyclohexyl-1H-imidazol-4-yl)-propionic acid (free acid, amorphous) and the received data are shown in the following table 2.

The nature of data set [2]: Chemical stability under elevated temperature and humidity. The note with it: result in words. It is filed as physicochemical.

On to `Nc1ccc(CC(C(=O)O)c2cn(C3CCCCC3)cn2)cn1` (stereo not shown) [3-[6-amino-pyridin-3-yl]-2-(1-cyclohexyl-1H-imidazol-4-yl)-propionic acid, reference compound], for which the “hygroscopicity (absorption or adsorption of water molecules from the surrounding environment)” value in data set [1] (result in words) is listed as “hygroscopic”.

Turning to `Nc1ccc(C[C@@H](C(=O)[O-])c2cn(C3CCCCC3)cn2)cn1.[Na+]` [(R)-3-[6-amino-pyridin-3-yl]-2-(1-cyclohexyl-1H-imidazol-4-yl)-propionic acid sodium salt monohydrate], the desorption of water in data set [1] (DVS 25° C., at 0.2% RH, phase transition monohydrate to anhydrate) is −4.4%.

On to `Nc1ccc(C[C@@H](C(=O)O)c2cn(C3CCCCC3)cn2)cn1` [(R)-3-[6-amino-pyridin-3-yl]-2-(1-cyclohexyl-1H-imidazol-4-yl)-propionic acid], for which, in data set [2], the chemical stability entry is given as “chemically not stable” and the “enantiomeric purity on storage” value is recorded as “reduced within a short time”.
